Test results from US20070059688A1, “Gastrointestinal chemosensory receptors” (priority 2001, published 2007).
Entries after “also recorded” stand apart in the source; their conditions may differ.

Tests used:
STC-1 cells [1] = test: Ca2+ imaging of individual STC-1 cells (fura 2-AM) after bitter tastants; assay type: cell-based, mouse; settings: for [Ca2+]i response in STC-1 cells (in words): single cells, FIG. 9 concentrations: PTC 3 mM, 6-PTU 1 mM, caffeine 10 mM, nicotine 10 mM, cycloheximide 50 μM
Protocol: The [Ca^2+]i of individual cells was measured before and after exposure to single concentrations of bitter tastants. Top panel. […] The values in parenthesis are the number of cells analyzed. Lower panels. Individual traces of [Ca^2+], from two cells exposed to denatonium benzoate or cycloheximide.
Due to heterogeneity of the STC-1 cell population, we monitored responses in the intracellular Ca^2+ concentration ([Ca^2+]i) using Ca^2+ imaging of individual cells and tested the effect of several compounds widely used in bitter taste signaling.
The concentrations of denatonium used in these experiments are similar to those used for eliciting second messenger changes and ion channel activity in taste tissues.
Since a low level of mT2R5 expression was also detected in STC-1 cells, we determined if cycloheximide stimulates a [Ca^2+]i response in these cells.

IEC-18 cells = test: [Ca2+]i changes in IEC-18 cells; assay type: cell-based, rat; settings: FIG. 10B: 5 mM denatonium benzoate, vasopressin as positive control
Protocol: (§1) (A) STC-1 cells, grown on cover slips, were washed with a buffer solution (buffer A) consisting of Hanks' balanced salt solution supplemented with 0.03% NaHCO3, 1.3 mM CaCl2, 0.5 mM MgCl2, 0.4 mM MgSO4, and 0.1% BSA. After washing, cells were incubated with […] methyl ester (fura-2/AME) from a stock of 1 mM in DMSO for 30 min at room temperature. Cells were then washed again with buffer A and left at room temperature for an additional 30 min. Each cover slip was placed in a glass cuvette with 2 ml of buffer A, and fluorescence was measured continuously in a Hitachi F-2000 fluorospectrophotometer with excitation wavelength of 340 and 380 nm and an emission wavelength of 510 nm. The bars represent the increase in [Ca^2+]i in response to various concentrations of denatonium benzoate (DB), as indicated. (B) [Ca^2+]i changes in IEC-18 cells, a normal rat intestinal epithelial cell line, after sequential addition of 5 mM denatonium benzoate (DB) followed by 50 nM vasopressin (VP), added as a positive control. (C) [Ca^2+]i changes in Swiss 3T3 cells after sequential addition of 5 mM denatonium benzoate (DB) followed by 10 nM bombesin (Bom), added as a positive control. The changes in [Ca^2+]i in IEC-18 and Swiss 3T3 cells were measured as described above for STC-1 cells.

[2] = target: T1, chimeric mT2R5 receptors containing the NH2-terminal 39 amino acids of rhodopsin (Mus musculus, UniProt Q9JKT4); settings: HEK-293 cells; Chandrashekar et al, Cell 100:703-711 (2000); cited from earlier work
T1 construct: host or cells: HEK-293 (heterologous expression)
T1 sequence (Q9JKT4 with tags, fused parts or gaps): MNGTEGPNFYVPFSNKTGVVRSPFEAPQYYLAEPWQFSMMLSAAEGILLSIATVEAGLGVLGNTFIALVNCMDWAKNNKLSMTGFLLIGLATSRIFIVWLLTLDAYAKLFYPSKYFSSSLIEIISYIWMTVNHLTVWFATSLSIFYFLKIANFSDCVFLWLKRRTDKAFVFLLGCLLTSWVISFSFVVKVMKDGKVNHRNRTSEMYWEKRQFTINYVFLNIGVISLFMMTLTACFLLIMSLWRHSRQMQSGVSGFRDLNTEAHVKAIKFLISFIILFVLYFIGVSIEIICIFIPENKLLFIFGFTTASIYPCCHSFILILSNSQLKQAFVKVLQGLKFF

STC-1 cells [3] = test: [Ca2+]i in STC-1 cells on cover slips, fura-2 fluorospectrophotometry; assay type: cell-based, mouse; settings: various concentrations of denatonium benzoate, FIG. 10A
Protocol: as §1

CN1CCCC1c1cccnc1 (centres unmarked) [nicotine]
[Ca2+]i response in STC-1 cells (in words) (STC-1 cells [1]): robust [Ca^2+]i responses

CCCc1cc(=O)[nH]c(=S)[nH]1 [6-n-propil-2-thiouracil]
[Ca2+]i response in IEC-18 cells (in words) (IEC-18 cells): not in other well studied cell lines such as IEC-18 or 3T3
[Ca2+]i response in STC-1 cells (in words) (STC-1 cells [1]): robust [Ca^2+]i responses; also recorded: promoted rapid [Ca^2+]i responses

NC(=S)Nc1ccccc1 [phenylthiocarbamide]
[Ca2+]i response in IEC-18 cells (in words) (IEC-18 cells): not in other well studied cell lines such as IEC-18 or 3T3
[Ca2+]i response in STC-1 cells (in words) (STC-1 cells [1]): robust [Ca^2+]i responses; also recorded: promoted rapid [Ca^2+]i responses

C[C@@H]1C[C@@H]([C@H](O)CC2CC(=O)NC(=O)C2)C(=O)[C@@H](C)C1 [cycloheximide]
[Ca2+]i response in IEC-18 cells (in words) (IEC-18 cells): not in other well studied cell lines such as IEC-18 or 3T3
mT2R5 response, increase in [Ca2+]i (in words) [2]: responds
[Ca2+]i response in STC-1 cells (in words) (STC-1 cells [1]): induced oscillatory changes in [Ca^2+]i in a small sub-population of STC-1 cells; also recorded: promoted rapid [Ca^2+]i responses

O=C(O)/C=C/c1ccc(O)c(O)c1 [caffeic acid]
[Ca2+]i response in STC-1 cells (in words) (STC-1 cells [1]): did not induce any detectable change

CC[N+](CC)(CC(=O)Nc1c(C)cccc1C)Cc1ccccc1 [denatonium benzoate]
[Ca2+]i response in IEC-18 cells (in words) (IEC-18 cells): not in other well studied cell lines such as IEC-18 or 3T3
cells with increase in [Ca2+]i (STC-1 cells [1]; 1 mM, percentage of the STC-1 population): 33%
cells with marked increase in [Ca2+]i (STC-1 cells [1]; 10 mM, percentage of STC-1 cells examined): 97%
[Ca2+]i response in STC-1 cells (in words) (STC-1 cells [1]): rapid and dose-dependent elevation
[Ca2+]i response in STC-1 cells (in words) (STC-1 cells [1]; listed as denatonium): promoted rapid [Ca^2+]i responses
increase in [Ca2+]i in STC-1 cells (in words) (STC-1 cells [3]): dose-dependent increase

CN1[C@@H]2CC[C@H]1C[C@@H](OC(=O)C(CO)c1ccccc1)C2 (some centres unmarked) [atropine]
[Ca2+]i response in STC-1 cells (in words) (STC-1 cells [1]): did not induce any detectable change

Cn1c(=O)c2c(ncn2C)n(C)c1=O [caffeine]
[Ca2+]i response in STC-1 cells (in words) (STC-1 cells [1]): robust [Ca^2+]i responses
